Measurements reported in article PMC4763008, “Selective Inhibition of Bakuchicin Isolated from Psoralea corylifolia on CYP1A in Human Liver Microsomes” (Evidence-based Complementary and Alternative Medicine : eCAM, 2016).
Where two headings read alike, the source gives them in different places.

Assays:
[1] = molecular target: T1, CYP2C8 (Homo sapiens, UniProt P10632); experiment: CYP inhibition, cocktail of probe substrates in pooled human liver microsomes: paclitaxel hydroxylation; type: in vitro ADME; conditions: pooled HLMs, substrate 10 μM
T1 construct: each reaction was performed with 0.5 mg/mL pooled human liver microsomes; tissue Corning Gentest BD UltraPool HLM 150; host or cells: pooled human liver microsomes
T1 sequence (P10632 1-490): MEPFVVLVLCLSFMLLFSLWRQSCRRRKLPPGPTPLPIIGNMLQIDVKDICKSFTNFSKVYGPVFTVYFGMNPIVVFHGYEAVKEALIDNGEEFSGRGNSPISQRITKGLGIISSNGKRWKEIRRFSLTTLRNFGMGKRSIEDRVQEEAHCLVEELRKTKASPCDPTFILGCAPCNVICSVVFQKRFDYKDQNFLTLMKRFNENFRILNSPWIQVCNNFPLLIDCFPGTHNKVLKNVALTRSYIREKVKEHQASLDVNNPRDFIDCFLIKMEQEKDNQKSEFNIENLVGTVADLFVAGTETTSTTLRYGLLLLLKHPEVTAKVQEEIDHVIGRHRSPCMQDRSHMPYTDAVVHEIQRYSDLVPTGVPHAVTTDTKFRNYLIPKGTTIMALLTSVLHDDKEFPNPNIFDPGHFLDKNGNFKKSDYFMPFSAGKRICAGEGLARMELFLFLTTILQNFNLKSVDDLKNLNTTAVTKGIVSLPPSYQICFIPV

[2] = molecular target: T2, CYP2C19 (Homo sapiens, UniProt P33261); experiment: CYP inhibition, cocktail of probe substrates in pooled human liver microsomes: omeprazole 5-hydroxylation; type: in vitro ADME; conditions: pooled HLMs, substrate 20 μM
T2 construct: tissue Corning Gentest BD UltraPool HLM 150; host or cells: pooled human liver microsomes
Experimental: All incubations were performed in duplicate, and data are presented as means. Briefly, each reaction was performed with 0.5 mg/mL pooled human liver microsomes in a final incubation volume of 0.1 mL. The incubation medium consisted of 0.1 M potassium phosphate buffer (pH 7.4) containing cocktail of probe substrates and a NADPH-generating system (NGS) of 0.1 M glucose 6-phosphate, 10 mg/mL β-NADPH, and 1.0 U/mL glucose-6-phosphate dehydrogenase. To investigate the IC50 of bakuchicin during CYP1A inhibition, bakuchicin (at final concentrations of 0–25 μM) was incubated without preincubation. In addition, the mixture with bakuchicin was preincubated for 15 min without the probe substrate cocktail in the presence or absence of 1 mM β-NADPH. After the reaction was initiated by adding the NGS for 60 min, incubated samples were terminated by adding 100 μL acetonitrile containing 0.1% formic acid and 2.5 μL of internal standard solution (5 μM reserpine) in methanol. After mixing and centrifuging at 13,000 ×g for 12 min, a 5 μL aliquot was injected onto a C18 column for LC-MS/MS analysis.
All measurements were performed using LC-MS/MS in multiple reaction monitoring mode. LC-MS/MS was performed using an Accela™ LC system coupled to a TSQ Vantage triple quadrupole mass spectrometer (Thermo Fisher Scientific Inc., USA) equipped with a HESI-II Spray source. Electrospray ionization was performed in positive mode at a spray voltage of 3,500 V (except for the detection of 6-hydroxy chlorzoxazone). Nitrogen was used as a sheath and auxiliary gas at optimum values of 45 and 20 (arbitrary units), respectively. Vaporizer and capillary temperatures were 150 and 300°C, respectively. For LC analysis an Inertsil® ODS-2 (3 μm, 2.1 × 150 mm) column (GL Sciences Inc., Torrance, CA) was used. The mobile phase consisted of acetonitrile (mobile phase A) and water (mobile phase B), both of which contained 0.1% formic acid, at a flow rate of 0.22 mL/min at 30°C.
All incubations were performed in duplicate, and data are presented as means. […]

[3] = 15 min preincubation with NADPH, read-out: IC50 With preincubation with NADPH
[4] = 15 min preincubation without NADPH, read-out: IC50 With preincubation Without NADPH
[5] = without preincubation, read-out: IC50 Without preincubation

T2 sequence (P33261 whole entry): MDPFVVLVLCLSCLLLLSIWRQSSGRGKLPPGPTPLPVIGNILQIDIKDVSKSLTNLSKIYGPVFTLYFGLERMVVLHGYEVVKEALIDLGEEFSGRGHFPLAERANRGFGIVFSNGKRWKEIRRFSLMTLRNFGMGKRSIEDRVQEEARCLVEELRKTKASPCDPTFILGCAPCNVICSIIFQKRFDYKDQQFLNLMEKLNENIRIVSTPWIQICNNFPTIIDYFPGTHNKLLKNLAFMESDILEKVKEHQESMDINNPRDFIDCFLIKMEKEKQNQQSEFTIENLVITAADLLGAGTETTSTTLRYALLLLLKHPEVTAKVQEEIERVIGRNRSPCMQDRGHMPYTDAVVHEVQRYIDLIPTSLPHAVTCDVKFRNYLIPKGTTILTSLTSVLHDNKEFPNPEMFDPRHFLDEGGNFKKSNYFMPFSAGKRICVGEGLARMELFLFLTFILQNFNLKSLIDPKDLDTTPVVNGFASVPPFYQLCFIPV

IC50 [1, 3]: > 100 µM | IC50 [1, 4]: > 100 µM | IC50 [1, 5]: > 100 µM | IC50 [2, 3]: > 100 µM | IC50 [2, 4]: > 100 µM | IC50 [2, 5]: > 100 µM
SMILES: O=c1ccc2c(ccc3ccoc32)o1 [Bakuchicin]
